Source: US10421989B2, “Methods and reagents for riboswitch analysis” (CORNELL UNIVERSITY, priority 2014, dated 2019)
“And” between values parts separate entries of the source, which are not always exact repeats. Identical values can stand only once.

Key:
[1] = target: dye-labeled TPP riboswitch (WT/24-68); test: smFRET titration of TPP, high-FRET state occupancy; type: binding, E. coli; conditions: TPP 0 to 100 μM, 2 mM Mg2+; fit y=ymax(x/x+Kd); read-out: estimated Kd (apparent dissociation constant)
Protocol: FIG. 20. Former tpp The dye-labeled TPP riboswitch (WT/24-68) binds TPP with nanomolar affinity. The affinity of TPP for the WT/24-68 labeled construct was estimated by titrating TPP from 0 to 100 μM in the presence of 2 mM Mg^2+, and quantifying the change in population of fully folded riboswitch molecules (high-FRET state occupancy) as a function of TPP concentration using single-molecule FRET measurements. Shown (black squares) is the average high-FRET state occupancy value (total area under the curve) obtained by fitting population FRET histograms to three Gaussian distributions (low-, intermediate- and high-FRET) over three independent experiments. Each value was normalized to the percent high-FRET state occupancy observed at […]. […]
smFRET data were acquired using a prism-based total internal reflection microscope, where the biotinylated TPP riboswitch was surface immobilized within PEG-passivated, strepatividin-coated quartz microfluidic devices. {Dave R, et al 2009} The Cy3 fluorophore was directly illuminated under 1.5 kW cm^−2 intensity at 532 nm (Laser Quantum). […] Fluorescence data were acquired using MetaMorph acquisition software (Universal Imaging Corporation) at a rate of 66.7 frames per second (15 ms integration). Fluorescence trajectories were selected from the movie files for analysis using automated image analysis software coded in Matlab (The MathWorks). […]

[2] = target: wild-type (A11AP) preQ1-II riboswitch aptamer construct; test: 2-aminopurine fluorescence titration of preQ1 binding, wild-type aptamer; design: species or system Streptococcus pneumoniae R6; conditions: 0.5 μM RNA, 50 mM KMOPS, 100 mM KCl, Mg2+, 25° C.; 2-aminopurine at position A11
Protocol: (§1) FIG. 10. A11/2-Aminopurine (A11AP) fluorescence measurements of WT and ΔP3 preQ1-II riboswitch variants. (a) Secondary structure of the WT/A11AP (left) and ΔP3/A11AP (right) preQ1-II variant. (b) Qualitative fluorescence response upon Mg^2+ (4 mM) and subsequent preQ1 addition (10 μM) (λex=308 nm; detection at 372 nm). (c) Fluorescence emission spectra (λex=308 nm) from 320 to 480 nm for each preQ1 concentration. (d) Normalized 2AP fluorescence intensity plotted as a function of preQ1 concentrations, changes in fluorescence (F-F0) were normalized to the maximum fluorescence measured in the absence of ligands. […]
(§2) Experiments were measured on a Cary Eclipse spectrophotometer (Varian) equipped with a peltier block and a magnetic stirring device. […] Spectra were recorded from 320 to 500 nm with excitation wavelength 308 nm and scan rate of 120 nm/min. The apparent binding constants KD were determined by following the increase in fluorescence after each titration step via integration of the area between 330 and 450 nm. Changes in fluorescence (F-F0) were normalized to the maximum fluorescence measured in the absence of ligand. Measurements for each titration step was repeated at least two times and the mean of the normalized fluorescence intensity was plotted against ligand concentration. The final KD value is the arithmetic mean, determined from two to three independent titration experiments.

[3] = target: truncated (ΔP3/A11AP) preQ1-II riboswitch aptamer construct; test: 2-aminopurine fluorescence titration of preQ1 binding, truncated aptamer; design: species or system Streptococcus pneumoniae R6
Protocol: as §1, §2

| Structure (SMILES) | Kd [1] | Kd [2] [nM] | Kd ([3]; 0.5 μM RNA, 50 mM KMOPS, 100 mM KCl, Mg2+, 25° C., 2-aminopurine at position A11) [nM] | decrease in affinity compared to the wild-type (A11AP) aptamer construct ([3]; truncated construct vs wild-type) [fold] |
| --- | --- | --- | --- | --- |
| Cc1ncc(C[n+]2csc(CCO[P@](=O)(O)OP(=O)(O)O)c2C)c(N)n1 [TPP, thiamine pyrophosphate] | ~100 nM and 115 nM | – | – | – |
| NCC1C=Nc2nc(N)[nH]c(=O)c21 (stereo not shown) [preQ1, 7-aminomethyl-7-deazaguanine] | – | 430 ± 10 | 4200 ± 100 | 10 |
